Results reported in the NIST ThermoML archive (doi:10.1016/j.jct.2008.07.012).
Numbers after ± are expanded uncertainties.

Assay: molar enthalpy of vaporization or sublimation
Conditions: 298.15 K; Crystal; Calvet Calorimetry

| Structure (SMILES) | molar enthalpy [kcal/mol] |
| --- | --- |
| O=[N+]([O-])c1cccc(Cl)c1 [1-chloro-3-nitrobenzene] | 19.7 ± 0.717 |
| O=[N+]([O-])c1ccc(Cl)cc1 [1-chloro-4-nitrobenzene] | 18.2 ± 1 |
| O=[N+]([O-])c1ccccc1Cl [1-chloro-2-nitrobenzene] | 19.3 ± 0.717 |
